The values that follow come from patent publication US8524755B2 (priority 2009, dated 2013).

For one test, the system named is I2. Briefly: Binding I2 (aa). The arrangement: species or system rat. The procedure: (§1) Radioligand binding assay methods utilized to measure the activity of compounds of the invention will be familiar to those skilled in the art. In each assay case, the assay components such as, for example, the cell-type, ligand, reference compound and the like, will be familiar to practitioners of such an assay.
(§2) Analysis and Expression of Results: Compounds of the invention were tested in the biochemical assays and percent inhibition of specific binding was determined. The specific ligand binding to the receptors is defined as the difference between the total binding and the nonspecific binding determined in the presence of an excess of unlabelled ligand. The results are expressed as a percent inhibition of control specific binding (100−((measured specific binding/control specific binding)×100)) obtained in the presence of test compounds.

For a further test, the system named is ATPase (Na^+/K^+). Kind of test: Enzyme assay ATPase (Na+/K+). Format: biochemical, porcine. From the text: The enzyme assays provided below will be familiar to those skilled in the art.
Analysis and Expression of Results: The results are expressed as a percent of control specific activity ((measured specific activity/control specific activity)×100) obtained in the presence of the test compounds.

Another test concerns the target T1, Bradykinin B1 (h) (Homo sapiens, UniProt P46663).
T1 construct: expressed in transfected cells; host or cells: CHO cells
T1 sequence (P46663 1-353): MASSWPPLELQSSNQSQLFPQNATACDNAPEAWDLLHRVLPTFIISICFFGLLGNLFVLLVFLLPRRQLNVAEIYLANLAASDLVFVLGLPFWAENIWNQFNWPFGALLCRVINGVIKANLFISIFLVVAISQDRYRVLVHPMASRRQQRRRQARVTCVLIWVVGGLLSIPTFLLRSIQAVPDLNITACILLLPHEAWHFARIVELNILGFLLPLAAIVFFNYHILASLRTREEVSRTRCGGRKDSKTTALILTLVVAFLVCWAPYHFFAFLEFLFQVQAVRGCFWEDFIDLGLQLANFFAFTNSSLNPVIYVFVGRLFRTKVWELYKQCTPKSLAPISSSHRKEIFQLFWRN
Kind of test: Binding B1 (h) (ag). The following applies: read-out: % Inhibition of Control Specific Binding @ 10 μM. The procedure: as §1, §2

In another test the test system is Adrenergic α1 (ns). Kind of test: Binding α1 (ns) (aa). The arrangement: species or system rat. The procedure:
as §1, §2

In a further test the target is T2, Estrogen ER (ns) (h) (Homo sapiens, UniProt P03372).
T2 construct: MCF-7 cells (cytosol); endogenous in cells; host or cells: MCF-7 cells (cytosol)
Briefly: Binding ER (ns) (h) (ag). To be noted: read-out: % Inhibition of Control Specific Binding @ 10 μM. The procedure:
as §1, §2

The target in another test is T3, GnRH (LH-RH) (Rattus norvegicus, UniProt P30969).
T3 construct: rat pituitary gland; from tissue; host or cells: rat pituitary gland
T3 sequence (P30969 1-327): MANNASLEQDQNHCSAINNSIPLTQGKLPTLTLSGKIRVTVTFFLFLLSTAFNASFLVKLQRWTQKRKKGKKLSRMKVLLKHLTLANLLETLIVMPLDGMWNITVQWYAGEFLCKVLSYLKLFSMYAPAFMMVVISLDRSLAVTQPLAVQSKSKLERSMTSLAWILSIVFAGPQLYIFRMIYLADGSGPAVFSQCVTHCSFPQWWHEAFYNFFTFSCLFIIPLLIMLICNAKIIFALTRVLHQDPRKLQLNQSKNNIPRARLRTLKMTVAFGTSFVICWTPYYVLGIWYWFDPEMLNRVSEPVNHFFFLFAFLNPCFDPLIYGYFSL
Kind of test: Binding GnRH (LH-RH) (ag). To be noted: read-out: % Inhibition of Control Specific Binding @ 10 μM. How it is done:
as §1, §2

Usually inhibition stands for the relative decrease from the control value, in per cent.

T2 sequence (P03372 whole entry): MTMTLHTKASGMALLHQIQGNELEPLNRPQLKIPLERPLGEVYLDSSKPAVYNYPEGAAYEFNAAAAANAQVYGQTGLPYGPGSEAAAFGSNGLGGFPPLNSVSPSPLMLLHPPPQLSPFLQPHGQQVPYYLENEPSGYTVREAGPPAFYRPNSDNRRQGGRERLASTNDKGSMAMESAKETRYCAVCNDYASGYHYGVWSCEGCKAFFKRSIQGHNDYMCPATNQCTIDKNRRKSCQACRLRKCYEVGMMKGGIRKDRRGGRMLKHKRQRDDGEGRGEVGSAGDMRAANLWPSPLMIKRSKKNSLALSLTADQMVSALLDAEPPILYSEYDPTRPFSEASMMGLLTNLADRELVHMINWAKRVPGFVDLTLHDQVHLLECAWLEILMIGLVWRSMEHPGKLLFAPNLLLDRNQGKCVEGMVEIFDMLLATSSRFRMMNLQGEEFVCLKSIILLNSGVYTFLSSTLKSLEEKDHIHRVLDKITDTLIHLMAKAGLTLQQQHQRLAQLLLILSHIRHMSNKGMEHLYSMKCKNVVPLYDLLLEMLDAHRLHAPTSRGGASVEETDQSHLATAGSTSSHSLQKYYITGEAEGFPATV

Turning to `CNC(=O)c1ccc(N2C(=O)N(c3ccc(C#N)c(C(F)(F)F)c3)C(=O)C2(C)C)cc1F` [(MIV), 4-(3-(4-cyano-3-(trifluoromethyl)phenyl)-5,5-dimethyl-2,4-dioxoimidazolidin-1-yl)-2-fluoro-N-methylbenzamide], the “% Inhibition of Control Specific Binding @ 10 μM” value is 8% with I2 and −3% in the test on Adrenergic α1 (ns). Moreover, in the test on ATPase (Na^+/K^+), the “% Inhibition of Control Values @ 10 μM” value is on record as −13%. The results for the inhibition at 10 µM at Bradykinin B1 (h), on Estrogen ER (ns) (h) and on GnRH (LH-RH) were 4%, -11% and 0%, respectively.
For the compound `CC1(C)C(=O)N(c2ccc(C#N)c(C(F)(F)F)c2)C(=O)N1c1ccc(C(N)=O)c(F)c1` [(MIII), 4-(3-(4-cyano-3-(trifluoromethyl)phenyl)-5,5-dimethyl-2,4-dioxoimidazolidin-1-yl)-2-fluorobenzamide], the “% Inhibition of Control Specific Binding @ 10 μM” value in the test with I2 is reported as 20%; with Adrenergic α1 (ns), −5%. Moreover, the “% Inhibition of Control Values @ 10 μM” value with ATPase (Na^+/K^+) amounted to 3%. The inhibition at 10 µM was 5% at Bradykinin B1 (h), -2% on Estrogen ER (ns) (h) and 5% at GnRH (LH-RH).
For the compound `CC1(C)C(=O)N(c2ccc(C#N)c(C(F)(F)F)c2)C(=S)N1c1ccc(C(=O)O)c(F)c1` [(MI), 4-(3-(4-cyano-3-(trifluoromethyl)phenyl)-5,5-dimethyl-4-oxo-2-thioxoimidazolidin-1-yl)-2-fluorobenzoic acid], the figures for the “% Inhibition of Control Specific Binding @ 10 μM” value in the test with I2 and in the test with Adrenergic α1 (ns) were 28% and −4%, respectively. For the same compound, the “% Inhibition of Control Values @ 10 μM” value with ATPase (Na^+/K^+) worked out at 4%. Also, the inhibition at 10 µM on Bradykinin B1 (h) was 0%; on Estrogen ER (ns) (h) it was -8%; on GnRH (LH-RH) it was -21%.
For `CC1(C)C(=O)N(c2ccc(C#N)c(C(F)(F)F)c2)C(=S)N1c1ccc(C(N)=O)c(F)c1` [(MII), 4-(3-(4-Cyano-3-(trifluoromethyl)phenyl)-5,5-dimethyl-4-oxo-2-thioxoimidazolidin-1-yl)-2-fluorobenzamide], the “% Inhibition of Control Specific Binding @ 10 μM” value was 22% in the test on I2 and −7% with Adrenergic α1 (ns). For the same compound, in the test with ATPase (Na^+/K^+), the “% Inhibition of Control Values @ 10 μM” value is −10%. Further, the inhibition at 10 µM on Bradykinin B1 (h) was 6%; on Estrogen ER (ns) (h), 3%; at GnRH (LH-RH), -51%.
